Experimental findings from ChEMBL document CHEMBL3301361, “Experimental in vitro DMPK and physicochemical data on a set of publicly disclosed compounds” are described below.

The data set in a line: physchem. The following applies: pH 7.4 buffer.

Converted amounts (≈) assume the structure as drawn.

Consider `COc1cccc(N(C)c2ccnc(Nc3cc(N4CCOCC4)cc(N4CCOCC4)c3)n2)n1`, for which the solubility (thermodynamic) (as a rule, solubility found after equilibrating the solid with the medium) turned out to be 15.5 µM (≈ 7.4 µg/mL). Take `CN(C)C(=O)[C@H](Cc1ccccc1)NC(=O)c1cc2cc(Br)ccc2[nH]1`: the solubility (thermodynamic) came to 1 µM (≈ 0.414 µg/mL). In turn, `O=C(CNC(=O)c1ccc(Cl)cc1)c1ccc(Br)cc1` returned a thermodynamic solubility of 0.5 µM (≈ 0.176 µg/mL). The same measure for `Cc1ccc(C(=O)C2CCN(S(=O)(=O)c3c(C)noc3C)CC2)cc1`: 2.1 µM (≈ 0.761 µg/mL); for `Nc1nccc(/C=C/c2ccccc2)n1`: 190 µM (≈ 37.6 µg/mL); for `O=C(Nc1ccc(Cl)c(Cl)c1)N1CCN(C[C@@H]2CCCN(CCCc3ccccc3)C2)CC1`: 144 µM (≈ 70.7 µg/mL). On to `CCOC(=O)Cc1csc(NC(=O)Nc2ccc(Cl)cc2)n1`, for which the thermodynamic solubility worked out at 2.6 µM (≈ 0.883 µg/mL). `CN(C(=O)Cc1ccc(-n2cnnn2)cc1)C1CCN(Cc2ccc(C(F)(F)F)nc2)CC1` returned a thermodynamic solubility of 182 µM (≈ 83.6 µg/mL). The compound `Nc1ccccc1NC(=O)c1ccc(N2CCOCC2)cc1` yielded a solubility (thermodynamic) of 182 µM (≈ 54.1 µg/mL). The same measure for `COc1cc(N2CCNC(=O)C2)ccc1Nc1ncc(Cl)c(-c2cnc3ccccn23)n1`: 4.9 µM (≈ 2.2 µg/mL); for `CN(C)CCCN(C)S(=O)(=O)c1ccc(Nc2nccc(-c3cnc4ccccn34)n2)cc1`: 309 µM (≈ 144 µg/mL); for `Cc1cccc(-c2ccc3c(c2)c(C(=O)C(=O)O)cn3Cc2ccc(C(C)(C)C)cc2)c1` [ALEPLASININ]: 363 µM (≈ 155 µg/mL).

Consider `COc1cc(-c2nn[nH]n2)ccc1Cn1ncc2ccc(NC(=O)OC3CCCC3)cc21`, for which the thermodynamic solubility stood at 43.7 µM (≈ 18.9 µg/mL). Under `CC(C)Oc1cc(O[C@H](C)c2ccccc2)cc(C(=O)Nc2ccc(C(=O)O)cn2)c1` stands 112 µM (≈ 47.2 µg/mL); under `O=C(O)c1cc2c(Cl)cccc2n1Cc1ccc(Cl)c(Cl)c1`, 66.1 µM (≈ 23.4 µg/mL); under `COCCNS(=O)(=O)c1ccc(Nc2nccc(-c3cnc(C)n3C3CCCC3)n2)cc1`, 53.7 µM (≈ 24.5 µg/mL).

Compound `Cn1cncc1[C@@](N)(c1ccc(Cl)cc1)c1ccc2c(c1)c(-c1cccc(Cl)c1)cc(=O)n2C` [TIPIFARNIB] came in with a thermodynamic solubility of 9.5 µM (≈ 4.65 µg/mL).

With `Nc1cccc(S(=O)(=O)Nc2ccccc2)c1`, the thermodynamic solubility turned out to be 1020 µM (≈ 254 µg/mL). The same measure for `COC[C@H](C)Oc1cc(Oc2cccc(Cl)c2)cc(C(=O)Nc2ccc(C(=O)O)cn2)c1`: 1170 µM (≈ 537 µg/mL); for `Cc1cccc2c3cc(NC(=O)N4CCOCC4)ccc3n(C(C)C)c12`: 5.1 µM (≈ 1.79 µg/mL); for `COC[C@H](C)Oc1cc(Oc2ccc(OC)cc2)cc(C(=O)Nc2ccc(C(=O)O)cn2)c1`: 1510 µM (≈ 685 µg/mL). Take `CC(C)Oc1cc(OCCc2ccncc2)cc(C(=O)Nc2ccc(C(=O)O)cn2)c1`: the solubility (thermodynamic) amounted to 1070 µM (≈ 452 µg/mL). The same measure for `CN(C(=O)Cc1ccc(Br)cc1)C1CCN(CCC(c2ccccc2)c2ccccc2)CC1`: 21.9 µM (≈ 11.1 µg/mL); for `O=C(Nc1cccc(O)c1)c1ccc(OCCCN2CCCC2)cc1OCc1ccccn1`: 513 µM (≈ 230 µg/mL). For `CC(=O)n1c2ccccc2c2cc(NC(=O)CCc3ccncc3)ccc21`, the solubility (thermodynamic) worked out at 2.1 µM (≈ 0.751 µg/mL). The compound `O=C(O)[C@H](Cc1cccc(F)c1)N1CCC(CN2CCC(Oc3ccc(Cl)c(Cl)c3)CC2)CC1` showed a thermodynamic solubility of 417 µM (≈ 212 µg/mL).

The compound `COc1cc(N2CCN(C(=O)[C@H](C)O)CC2)ccc1Nc1ncc(Cl)c(-c2cnc3ccccn23)n1` had a solubility (thermodynamic) of 1.5 µM (≈ 0.762 µg/mL).

`Cc1onc(-c2ccccc2)c1C(=O)OCC(=O)c1ccccc1` returned a thermodynamic solubility of 2 µM (≈ 0.643 µg/mL). With `Cc1nc(-c2c(C)n(Cc3c(F)cccc3F)c(=O)n(C[C@H](N)c3ccccc3)c2=O)cs1`, the thermodynamic solubility was 1510 µM (≈ 709 µg/mL). `COc1cc(N2CCN(C(=O)[C@@H]3CCCC[C@H]3C(=O)NC3(C#N)CC3)[C@H](C)C2)ccc1C1CC1`: the solubility (thermodynamic) is 204 µM (≈ 94.9 µg/mL).

Regarding `CC/C(=C(/CC)c1ccc(O)cc1)c1ccc(O)cc1` [DIETHYLSTILBESTROL], the solubility (thermodynamic) is 25.1 µM (≈ 6.74 µg/mL). On to `CCOC(=O)c1nn(-c2ccccc2)c(=O)c2c(N)scc12`, for which the thermodynamic solubility was found to be 6.2 µM (≈ 1.96 µg/mL). The same measure for `c1ccc(CSc2ncnc3[nH]cnc23)cc1`: 95.5 µM (≈ 23.1 µg/mL); for `C[C@H](Oc1cccc2ncnc(Nc3ccc4c(cnn4Cc4cccc(F)c4)c3)c12)C(=O)N(C)C`: 8.1 µM (≈ 3.92 µg/mL); for `Cc1ccc(/C=C2\SC(=O)NC2=O)cc1`: 85.1 µM (≈ 18.7 µg/mL). Under `O=C1NCNC1(c1ccccc1)c1ccccc1` [DOXENITOIN] stands 316 µM (≈ 75.3 µg/mL); under `CC(C)(C)[C@@H](C#N)NC(=O)[C@@H]1CCCC[C@H]1C(=O)N1CCc2[nH]c3ccc(F)cc3c2C1`, 74.1 µM (≈ 32.5 µg/mL). `COCCOc1cc2ncnc(Nc3ncc(CC(=O)Nc4cccc(F)c4)s3)c2cc1OC` registered a thermodynamic solubility of 0.6 µM (≈ 0.29 µg/mL). Under `CC1(C)CNc2cc(NC(=O)c3cccnc3NCc3ccncc3)ccc21` [MOTESANIB] stands 44.7 µM (≈ 16.7 µg/mL); under `COc1ccc(Cl)c(Nc2ncnc3cc(OCCCN4CCN(C)CC4)cc(OC(C)C)c23)n1`, 347 µM (≈ 174 µg/mL). The same measure for `Cc1ccc2c(c1)-c1ccccc1S(=O)(=O)N2`: 631 µM (≈ 155 µg/mL). In turn, `O=C(O)c1cc2ccccc2n1Cc1cccc(Cl)c1` showed a thermodynamic solubility of 1200 µM (≈ 344 µg/mL). As for `Cc1ccc(Oc2ccc(Nc3ncnc4cccc(O[C@H](C)C(=O)N(C)C)c34)cc2C)cn1`, the solubility (thermodynamic) came out at 22.9 µM (≈ 10.5 µg/mL). With `COc1cc2c(Nc3c(Cl)ccc4c3OCO4)ncnc2cc1OCCCN1CCOCC1`, the solubility (thermodynamic) worked out at 70.8 µM (≈ 33.5 µg/mL). The same measure for `COc1ccc(Cl)cc1NC(=O)c1cnccn1`: 12 µM (≈ 3.16 µg/mL); for `Cc1ccc(C)c(N(C)c2ccnc(Nc3cc(N4CCOCC4)cc(N4CCOCC4)c3)n2)c1`: 5.9 µM (≈ 2.8 µg/mL). Under `COc1ccc(Cc2nnc(N)s2)cc1` stands 363 µM (≈ 80.3 µg/mL); under `C[C@@H](Oc1cccc2ncnc(Nc3ccc4c(cnn4Cc4cscn4)c3)c12)C(=O)N(C)C`, 43.7 µM (≈ 20.7 µg/mL); under `CC1(C)C(=O)N(c2ccc(SC(F)(F)F)cc2)C(=O)N1Cc1ccncc1`, 43.7 µM (≈ 17.3 µg/mL). The same measure for `Cc1cc(CNc2ncc(Br)c(Nc3cc(CCc4ccccc4)[nH]n3)n2)on1`: 1.7 µM (≈ 0.772 µg/mL).

In the case of `Cc1ccc(Oc2ccc(Nc3ncnc4cccc(O[C@@H](C)C(=O)N(C)C)c34)cc2C)cn1`, the solubility (thermodynamic) is 26.3 µM (≈ 12 µg/mL). For the compound `COc1ccc(Cl)c(Nc2ncnc3cc(OCCCN4CCN(C(C)=O)CC4)cc(OC(C)C)c23)n1`, the solubility (thermodynamic) was determined as 50.1 µM (≈ 26.5 µg/mL). `COc1cc2ncnc(Nc3cccc(Cl)c3F)c2cc1CN1CCCC[C@@H]1C(N)=O` had a thermodynamic solubility of 10 µM (≈ 4.44 µg/mL). Under `COc1cc(S(N)(=O)=O)c(OC)cc1N` stands 93.3 µM (≈ 21.7 µg/mL). The same measure for `CNC(=O)c1ccc(CC(=O)N(C)C2CCN(Cc3ccc(C(F)(F)F)cc3)CC2)cc1`: 107 µM (≈ 48 µg/mL); for `O=C(c1ccccc1)N1CCc2ccccc21`: 91.2 µM (≈ 20.4 µg/mL); for `c1ccc2c(c1)Nc1ccccc1S2` [PHENOTHIAZINE]: 2.9 µM (≈ 0.578 µg/mL).

In turn, `CC(C)Oc1cccc(NC(=O)c2ccc3cc(C(=N)N)ccc3c2)c1` returned a solubility (thermodynamic) of 64.6 µM (≈ 22.4 µg/mL).

Take `Cc1[nH]c2ccccc2c1CC#N`: the thermodynamic solubility was 1020 µM (≈ 174 µg/mL). The same measure for `COC[C@@H](C(N)=O)N(C)Cc1cc2c(Nc3cccc(Cl)c3F)ncnc2cc1OC`: 3.8 µM (≈ 1.7 µg/mL). Under `N#CC1(NC(=O)[C@@H]2CCCC[C@H]2C(=O)N2CCN(c3nc(-c4ccccc4)cs3)CC2)CC1` stands 95.5 µM (≈ 44.3 µg/mL); under `Cc1ncc(-c2ccnc(Nc3ccc(N4CCN(S(C)(=O)=O)CC4)cc3)n2)n1C(C)C`, 8.9 µM (≈ 4.05 µg/mL).
